Legend:
Experiment in all cases: biochemical
Format in all cases: biochemical
382 unique human kinases [1] = target: T1, 382 unique human kinases (Homo sapiens, UniProt P51617); details: kinase IRAK1, compound 10 uM; for remaining activity at 10 µM: read-out: % Enzyme Activity (relative to DMSO controls)
T1 construct: purchased Reaction Biology (HotSpot contract assay)

382 unique human kinases [2] = target: T2, 382 unique human kinases (Homo sapiens, UniProt Q05397); details: kinase FAK/PTK2, compound 10 uM; for remaining activity at 10 µM: read-out: % Enzyme Activity (relative to DMSO controls)
T2 construct: purchased Reaction Biology (HotSpot contract assay)

382 unique human kinases [3] = target: T3, 382 unique human kinases (Homo sapiens, UniProt Q5VT25); details: kinase MRCKa/CDC42BPA, compound 10 uM; for remaining activity at 10 µM: read-out: % Enzyme Activity (relative to DMSO controls)
T3 construct: purchased Reaction Biology (HotSpot contract assay)
T3 sequence (Q5VT25 whole entry): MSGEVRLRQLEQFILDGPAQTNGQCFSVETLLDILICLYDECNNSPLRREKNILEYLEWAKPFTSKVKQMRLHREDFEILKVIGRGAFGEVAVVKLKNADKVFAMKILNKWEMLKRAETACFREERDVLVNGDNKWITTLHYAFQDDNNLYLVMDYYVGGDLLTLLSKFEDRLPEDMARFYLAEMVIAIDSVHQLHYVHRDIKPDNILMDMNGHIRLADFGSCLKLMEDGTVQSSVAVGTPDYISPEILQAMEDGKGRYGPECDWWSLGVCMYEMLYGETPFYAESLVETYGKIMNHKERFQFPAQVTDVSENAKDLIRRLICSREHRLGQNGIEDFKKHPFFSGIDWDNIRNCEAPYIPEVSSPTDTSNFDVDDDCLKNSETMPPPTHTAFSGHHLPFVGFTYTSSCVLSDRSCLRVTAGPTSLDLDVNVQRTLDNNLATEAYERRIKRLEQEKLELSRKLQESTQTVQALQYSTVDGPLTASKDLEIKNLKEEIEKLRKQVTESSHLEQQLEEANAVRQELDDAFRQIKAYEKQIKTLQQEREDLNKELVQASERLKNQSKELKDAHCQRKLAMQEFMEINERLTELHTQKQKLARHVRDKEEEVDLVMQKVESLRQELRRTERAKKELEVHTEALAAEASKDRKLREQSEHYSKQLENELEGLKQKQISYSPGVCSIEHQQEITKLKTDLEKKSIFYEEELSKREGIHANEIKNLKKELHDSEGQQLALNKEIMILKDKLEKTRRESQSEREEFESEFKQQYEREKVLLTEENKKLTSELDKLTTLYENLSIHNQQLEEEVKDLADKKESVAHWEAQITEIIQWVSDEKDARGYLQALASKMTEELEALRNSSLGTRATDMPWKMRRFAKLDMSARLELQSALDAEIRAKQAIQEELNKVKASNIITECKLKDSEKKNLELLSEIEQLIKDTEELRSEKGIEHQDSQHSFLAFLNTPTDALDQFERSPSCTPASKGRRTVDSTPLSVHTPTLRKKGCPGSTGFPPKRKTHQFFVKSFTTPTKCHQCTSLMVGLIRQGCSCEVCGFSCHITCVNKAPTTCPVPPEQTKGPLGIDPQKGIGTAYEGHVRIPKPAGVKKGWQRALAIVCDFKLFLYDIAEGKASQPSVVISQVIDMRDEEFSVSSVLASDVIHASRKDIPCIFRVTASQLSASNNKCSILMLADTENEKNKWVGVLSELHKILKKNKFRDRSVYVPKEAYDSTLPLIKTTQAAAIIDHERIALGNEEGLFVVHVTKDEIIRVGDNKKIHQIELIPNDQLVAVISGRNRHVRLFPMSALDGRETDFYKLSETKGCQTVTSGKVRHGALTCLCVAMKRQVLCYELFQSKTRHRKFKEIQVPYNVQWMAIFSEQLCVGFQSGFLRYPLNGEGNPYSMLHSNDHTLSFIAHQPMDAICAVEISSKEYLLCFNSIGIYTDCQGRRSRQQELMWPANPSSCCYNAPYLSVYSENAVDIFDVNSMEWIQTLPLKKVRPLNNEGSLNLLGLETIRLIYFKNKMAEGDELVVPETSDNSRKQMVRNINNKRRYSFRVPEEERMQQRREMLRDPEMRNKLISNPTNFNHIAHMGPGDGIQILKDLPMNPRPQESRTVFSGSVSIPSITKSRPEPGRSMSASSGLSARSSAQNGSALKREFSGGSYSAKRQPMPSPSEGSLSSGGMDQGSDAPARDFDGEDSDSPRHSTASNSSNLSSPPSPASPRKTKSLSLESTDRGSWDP

382 unique human kinases [4] = target: T4, 382 unique human kinases (Homo sapiens, UniProt P07949, V804L); details: RET (V804L), 10 uM; for remaining activity at 10 µM: read-out: % Enzyme Activity (relative to DMSO controls)
T4 construct: purchased Reaction Biology (HotSpot contract assay)
T4 sequence (P07949 29-1114 V804L): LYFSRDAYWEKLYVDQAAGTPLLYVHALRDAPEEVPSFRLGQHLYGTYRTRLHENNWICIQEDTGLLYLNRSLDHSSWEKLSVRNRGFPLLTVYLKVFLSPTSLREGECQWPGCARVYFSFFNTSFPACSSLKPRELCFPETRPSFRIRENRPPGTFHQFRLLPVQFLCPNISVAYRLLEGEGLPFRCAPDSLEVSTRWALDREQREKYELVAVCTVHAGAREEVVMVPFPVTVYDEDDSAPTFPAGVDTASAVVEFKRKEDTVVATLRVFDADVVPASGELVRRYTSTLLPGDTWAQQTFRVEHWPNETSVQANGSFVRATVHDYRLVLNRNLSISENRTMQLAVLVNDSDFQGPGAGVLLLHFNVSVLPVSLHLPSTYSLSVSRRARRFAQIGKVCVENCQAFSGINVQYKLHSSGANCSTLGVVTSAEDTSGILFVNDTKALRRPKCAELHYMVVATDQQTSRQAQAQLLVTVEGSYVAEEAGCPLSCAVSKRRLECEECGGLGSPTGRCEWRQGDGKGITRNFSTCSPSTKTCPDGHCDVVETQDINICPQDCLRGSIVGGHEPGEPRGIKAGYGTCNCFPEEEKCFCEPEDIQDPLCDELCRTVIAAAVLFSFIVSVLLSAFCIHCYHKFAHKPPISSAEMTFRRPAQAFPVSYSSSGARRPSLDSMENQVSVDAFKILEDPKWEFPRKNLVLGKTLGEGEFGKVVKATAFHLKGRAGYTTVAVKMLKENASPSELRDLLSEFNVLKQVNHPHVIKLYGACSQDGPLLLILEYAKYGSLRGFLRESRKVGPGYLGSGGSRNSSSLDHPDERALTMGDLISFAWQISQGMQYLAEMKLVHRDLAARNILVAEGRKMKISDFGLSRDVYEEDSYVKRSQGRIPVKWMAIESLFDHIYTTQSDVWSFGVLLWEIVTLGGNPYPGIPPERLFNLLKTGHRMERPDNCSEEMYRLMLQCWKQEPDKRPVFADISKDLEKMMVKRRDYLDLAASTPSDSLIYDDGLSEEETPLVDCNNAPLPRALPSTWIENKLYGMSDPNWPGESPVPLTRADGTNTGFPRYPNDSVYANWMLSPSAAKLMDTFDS

382 unique human kinases [5] = target: T5, 382 unique human kinases (Homo sapiens, UniProt Q9Y5S2); details: MRCKb/CDC42BPB, 10 uM; for remaining activity at 10 µM: read-out: % Enzyme Activity (relative to DMSO controls)
T5 construct: purchased Reaction Biology (HotSpot contract assay)
T5 sequence (Q9Y5S2 whole entry): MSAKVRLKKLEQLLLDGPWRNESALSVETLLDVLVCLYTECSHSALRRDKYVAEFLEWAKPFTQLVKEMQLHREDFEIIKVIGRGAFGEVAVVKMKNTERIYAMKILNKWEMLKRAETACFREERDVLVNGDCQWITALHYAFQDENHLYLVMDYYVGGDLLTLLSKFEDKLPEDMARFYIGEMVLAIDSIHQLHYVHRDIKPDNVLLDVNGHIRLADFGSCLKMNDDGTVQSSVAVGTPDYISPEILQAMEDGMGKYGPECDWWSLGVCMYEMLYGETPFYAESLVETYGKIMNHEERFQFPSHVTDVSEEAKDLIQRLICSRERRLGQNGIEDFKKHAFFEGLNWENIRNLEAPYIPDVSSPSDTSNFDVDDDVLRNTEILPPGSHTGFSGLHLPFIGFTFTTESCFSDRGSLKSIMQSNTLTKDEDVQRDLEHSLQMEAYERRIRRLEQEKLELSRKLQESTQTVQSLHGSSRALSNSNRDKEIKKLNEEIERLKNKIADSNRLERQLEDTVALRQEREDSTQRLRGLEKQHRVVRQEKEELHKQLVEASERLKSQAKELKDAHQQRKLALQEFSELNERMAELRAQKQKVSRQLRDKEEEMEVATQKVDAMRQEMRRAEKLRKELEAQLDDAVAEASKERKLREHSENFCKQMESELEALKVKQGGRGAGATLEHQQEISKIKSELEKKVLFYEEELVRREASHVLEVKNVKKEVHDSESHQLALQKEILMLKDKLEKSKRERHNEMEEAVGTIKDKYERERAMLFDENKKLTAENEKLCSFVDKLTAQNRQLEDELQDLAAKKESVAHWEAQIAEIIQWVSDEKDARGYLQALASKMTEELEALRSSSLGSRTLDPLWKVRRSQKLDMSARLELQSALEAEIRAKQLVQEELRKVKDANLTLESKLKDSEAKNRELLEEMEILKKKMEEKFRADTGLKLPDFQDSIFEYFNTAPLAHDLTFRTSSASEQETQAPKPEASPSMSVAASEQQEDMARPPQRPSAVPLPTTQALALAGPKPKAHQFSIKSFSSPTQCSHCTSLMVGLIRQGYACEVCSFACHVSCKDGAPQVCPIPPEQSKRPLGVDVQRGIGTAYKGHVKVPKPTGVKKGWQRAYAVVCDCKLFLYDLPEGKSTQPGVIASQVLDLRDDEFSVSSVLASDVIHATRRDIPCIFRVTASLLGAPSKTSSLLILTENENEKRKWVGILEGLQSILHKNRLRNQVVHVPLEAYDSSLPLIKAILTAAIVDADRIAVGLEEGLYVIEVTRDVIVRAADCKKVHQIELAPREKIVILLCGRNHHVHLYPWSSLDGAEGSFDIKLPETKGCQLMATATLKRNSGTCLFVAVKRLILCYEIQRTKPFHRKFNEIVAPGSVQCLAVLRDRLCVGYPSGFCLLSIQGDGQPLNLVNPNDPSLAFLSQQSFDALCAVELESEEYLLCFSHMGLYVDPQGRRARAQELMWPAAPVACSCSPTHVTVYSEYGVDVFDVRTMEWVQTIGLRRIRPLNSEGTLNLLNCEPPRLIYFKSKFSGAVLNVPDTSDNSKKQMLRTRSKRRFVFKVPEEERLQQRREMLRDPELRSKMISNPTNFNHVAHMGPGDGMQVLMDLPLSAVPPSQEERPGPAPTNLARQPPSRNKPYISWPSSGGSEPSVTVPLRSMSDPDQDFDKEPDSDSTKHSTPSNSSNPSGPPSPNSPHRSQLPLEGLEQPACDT

382 unique human kinases [6] = target: T6, 382 unique human kinases (Homo sapiens, UniProt P22612); details: kinase PKAcg, compound 10 uM; for remaining activity at 10 µM: read-out: % Enzyme Activity (relative to DMSO controls)
T6 construct: purchased Reaction Biology (HotSpot contract assay)

382 unique human kinases [7] = target: T7, 382 unique human kinases (Homo sapiens, UniProt Q02156); details: kinase PKCepsilon, compound 10 uM; for remaining activity at 10 µM: read-out: % Enzyme Activity (relative to DMSO controls)
T7 construct: purchased Reaction Biology (HotSpot contract assay)
T7 sequence (Q02156 1-737): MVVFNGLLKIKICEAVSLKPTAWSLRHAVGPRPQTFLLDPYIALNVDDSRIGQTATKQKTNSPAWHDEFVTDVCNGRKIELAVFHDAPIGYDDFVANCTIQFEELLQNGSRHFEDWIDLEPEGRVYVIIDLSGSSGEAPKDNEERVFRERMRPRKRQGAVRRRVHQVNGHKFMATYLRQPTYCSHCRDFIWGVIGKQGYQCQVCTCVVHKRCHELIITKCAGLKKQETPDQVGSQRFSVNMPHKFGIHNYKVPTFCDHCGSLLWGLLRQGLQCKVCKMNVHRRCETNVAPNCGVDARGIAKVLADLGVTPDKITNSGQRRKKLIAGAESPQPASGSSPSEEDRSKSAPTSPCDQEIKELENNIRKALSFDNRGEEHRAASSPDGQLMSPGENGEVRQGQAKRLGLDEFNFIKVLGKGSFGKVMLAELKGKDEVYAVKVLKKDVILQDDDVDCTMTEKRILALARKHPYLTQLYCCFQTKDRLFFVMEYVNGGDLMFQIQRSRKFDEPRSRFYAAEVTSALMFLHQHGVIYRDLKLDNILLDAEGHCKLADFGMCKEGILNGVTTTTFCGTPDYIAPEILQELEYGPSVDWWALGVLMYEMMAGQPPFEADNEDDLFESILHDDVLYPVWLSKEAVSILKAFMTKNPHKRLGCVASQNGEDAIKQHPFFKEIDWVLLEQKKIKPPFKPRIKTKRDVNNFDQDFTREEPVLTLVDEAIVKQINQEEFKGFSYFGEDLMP

382 unique human kinases [8] = target: T8, 382 unique human kinases (Homo sapiens, UniProt O14733); details: kinase MKK7, compound 10 uM; for remaining activity at 10 µM: read-out: % Enzyme Activity (relative to DMSO controls)
T8 construct: purchased Reaction Biology (HotSpot contract assay)
T8 sequence (O14733 1-419): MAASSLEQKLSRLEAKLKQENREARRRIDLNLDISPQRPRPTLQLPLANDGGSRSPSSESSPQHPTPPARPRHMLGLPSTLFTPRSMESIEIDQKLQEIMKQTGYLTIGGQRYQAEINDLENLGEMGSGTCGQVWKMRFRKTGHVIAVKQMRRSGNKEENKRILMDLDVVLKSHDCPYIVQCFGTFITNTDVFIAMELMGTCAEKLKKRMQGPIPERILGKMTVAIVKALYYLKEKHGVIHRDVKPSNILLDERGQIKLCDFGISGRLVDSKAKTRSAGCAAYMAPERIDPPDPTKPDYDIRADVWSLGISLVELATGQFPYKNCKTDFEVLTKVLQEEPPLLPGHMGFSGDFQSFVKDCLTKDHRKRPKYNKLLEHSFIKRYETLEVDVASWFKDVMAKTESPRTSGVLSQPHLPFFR

382 unique human kinases [9] = target: T9, 382 unique human kinases (Homo sapiens, UniProt Q16644); details: MAPKAPK3, 10 uM; for remaining activity at 10 µM: read-out: % Enzyme Activity (relative to DMSO controls)
T9 construct: purchased Reaction Biology (HotSpot contract assay)
T9 sequence (Q16644 whole entry): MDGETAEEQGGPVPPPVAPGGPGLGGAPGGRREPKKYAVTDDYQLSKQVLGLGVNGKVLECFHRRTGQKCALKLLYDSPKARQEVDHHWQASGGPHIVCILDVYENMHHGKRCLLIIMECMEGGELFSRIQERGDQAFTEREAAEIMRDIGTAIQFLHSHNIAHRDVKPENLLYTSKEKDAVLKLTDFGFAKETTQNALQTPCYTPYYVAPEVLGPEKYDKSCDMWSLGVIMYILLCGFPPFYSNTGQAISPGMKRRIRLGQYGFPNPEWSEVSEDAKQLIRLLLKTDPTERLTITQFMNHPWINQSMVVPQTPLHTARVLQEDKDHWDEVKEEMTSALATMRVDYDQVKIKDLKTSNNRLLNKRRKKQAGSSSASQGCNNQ

382 unique human kinases [10] = target: T10, 382 unique human kinases (Homo sapiens, UniProt P00519, Q252H); details: ABL1 (Q252H), [ATP] 20 µM, compound 10 uM; for remaining activity at 10 µM: read-out: % Enzyme Activity (relative to DMSO controls)
T10 construct: purchased Reaction Biology (HotSpot contract assay)

382 unique human kinases [11] = target: T11, 382 unique human kinases (Homo sapiens, UniProt Q86YV6); details: MYLK4, [ATP] 50 µM, compound 10 uM; for remaining activity at 10 µM: read-out: % Enzyme Activity (relative to DMSO controls)
T11 construct: purchased Reaction Biology (HotSpot contract assay)
T11 sequence (Q86YV6 1-388): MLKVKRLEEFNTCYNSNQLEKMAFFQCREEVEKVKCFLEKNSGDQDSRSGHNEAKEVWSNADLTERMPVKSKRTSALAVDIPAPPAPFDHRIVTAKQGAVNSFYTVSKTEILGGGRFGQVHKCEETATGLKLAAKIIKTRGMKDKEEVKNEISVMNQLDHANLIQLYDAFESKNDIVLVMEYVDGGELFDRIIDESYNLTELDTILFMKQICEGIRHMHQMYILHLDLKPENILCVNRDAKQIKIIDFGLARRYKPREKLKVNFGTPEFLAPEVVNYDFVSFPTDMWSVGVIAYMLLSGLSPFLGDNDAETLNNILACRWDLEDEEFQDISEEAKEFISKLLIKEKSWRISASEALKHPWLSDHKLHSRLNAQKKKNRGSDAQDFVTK

382 unique human kinases [12] = target: T12, 382 unique human kinases (Homo sapiens, UniProt P08581, M1250T); details: c-MET (M1250T), 10 uM; for remaining activity at 10 µM: read-out: % Enzyme Activity (relative to DMSO controls)
T12 construct: purchased Reaction Biology (HotSpot contract assay)

Row | Structure (SMILES) | remaining activity at 10 µM (382 unique human kinases [1]) | remaining activity at 10 µM (382 unique human kinases [2]) | remaining activity at 10 µM (382 unique human kinases [3]) | remaining activity at 10 µM (382 unique human kinases [4]) | remaining activity at 10 µM (382 unique human kinases [5]) | remaining activity at 10 µM (382 unique human kinases [6]) | remaining activity at 10 µM (382 unique human kinases [7]) | remaining activity at 10 µM (382 unique human kinases [8]) | remaining activity at 10 µM (382 unique human kinases [9]) | remaining activity at 10 µM (382 unique human kinases [10]) | remaining activity at 10 µM (382 unique human kinases [11]) | remaining activity at 10 µM (382 unique human kinases [12]) | further results
1 | CC(C)c1cc(-c2n[nH]c(=O)n2-c2ccc3c(ccn3C)c2)c(O)cc1O [Ganetespib (STA9090)] | 102% | 91.3% | 87.6% | 78.5% | 78.9% | 101% | 87% | 80.9% | – | – | – | – | –
2 | CC(C)c1cc(-c2n[nH]c(=O)n2-c2ccc3c(ccn3C)c2)c(O)cc1O [Ganetespib] | – | – | – | – | – | – | – | – | 97.3% | 3.59% | 60.1% | 99.8% | –
3 | CCNC(=O)c1noc(-c2cc(C(C)C)c(O)cc2O)c1-c1ccc(CN2CCOCC2)cc1 [Luminespib] | – | – | – | – | – | – | – | – | 105% | 5.39% | 96.7% | 113% | % Enzyme Activity (relative to DMSO controls) (382 unique human kinases [9]): 103.47%; % Enzyme Activity (relative to DMSO controls) (382 unique human kinases [10]): 5.25%; % Enzyme Activity (relative to DMSO controls) (382 unique human kinases [11]): 95.56%; % Enzyme Activity (relative to DMSO controls) (382 unique human kinases [12]): 112.05%
4 | CCNC(=O)c1noc(-c2cc(C(C)C)c(O)cc2O)c1-c1ccc(CN2CCOCC2)cc1 [Luminespib (AUY-922)] | 105% | 98% | 99.7% | 106% | 111% | 104% | 107% | 105% | – | – | – | – | % Enzyme Activity (relative to DMSO controls) (382 unique human kinases [1]): 104.17%; % Enzyme Activity (relative to DMSO controls) (382 unique human kinases [2]): 96.62%; % Enzyme Activity (relative to DMSO controls) (382 unique human kinases [3]): 98.43%; % Enzyme Activity (relative to DMSO controls) (382 unique human kinases [4]): 104.44%; % Enzyme Activity (relative to DMSO controls) (382 unique human kinases [5]): 103.51%; % Enzyme Activity (relative to DMSO controls) (382 unique human kinases [6]): 102.38%; % Enzyme Activity (relative to DMSO controls) (382 unique human kinases [7]): 103.78%; % Enzyme Activity (relative to DMSO controls) (382 unique human kinases [8]): 102.48%

Reference: PMC8550792, “Evolution of kinase polypharmacology across HSP90 drug discovery” (Cell Chemical Biology, 2021)
